{"source": "patent US7388124B2", "about": "(priority 2001, dated 2008)", "key": {"rat pain model variants [1]": {"system": "rat pain model variants", "assay": "Analgesic effect in rat neurogenic pain model variants (overall statement)", "format": "in vivo, Sprague Dawley rats", "conditions": "within 40-80 minutes", "procedure": "(§1) The methods of preparation and testing were similar for all the variant pain models described in this example. Male Sprague Dawley rats initially weighing between 150 and 175 grams were housed singly. Baseline behaviors to stimulations of the paw on which the procedure was to be performed were recorded over several sessions after accommodation of 3-4 days, and the results were averaged and used as the baseline control data. The pain behaviors studied were static mechanical allodynia (e.g., light touch stimulation with von Frey fibers 4.56, 4.73, 4.93, and/or 5.07), dynamic mechanical allodynia (e.g., stimulation with moving camel hair brush), and/or mechanical hyperalgesia (e.g., pinprick stimulation).\n(§2) After the baseline control data was collected, the specified procedure with a gel was performed near the chosen nerve of each variant group (see Tables 2-6 and 8-10), then the rats were tested post procedurally and intermittently for up to 77 days for behavioral changes (see Tables 2-6 and 8-11) and for their responses to substances with analgesic properties (see Tables 7 and 12).\n(§3) The stimuli used to elicit pain behavior were the von Frey fibers, camel hair brush and pinprick, with 6 stimulations of each stimulus. Each variant pain model had the same sequence of stimuli with the positive responses averaged and a student T-test performed for the significance of the post procedural responses as compared to the baseline control data (see Tables 2-6 and 11); and for the post-analgesic responses as compared to the pre-analgesic behavioral data (see Tables 7 and 12).\n(§4) The tunnels identified by the above studies were then used for the placement of the biocompatible gels by the chosen peripheral nerves. The gelatinous or viscous substances (i.e., the gels) placed by the peripheral nerves or nerve roots contained collagen (e.g., AVITENE® and gelatin) or hydrogels. The “collagen gel” used in the present study was composed of 0.8 grams of collagen as AVITENE® (microfibrillar collagen hemostat flour, Davol Inc., Cranston, R.I. 02920) and 0.7 grams of collagen as gelatin (Knox gelatin, Kraft Foods, Northfield, Ill. 60093) mixed with 14 cc of normal saline until homogenous. Then the collagen mixture was placed in a PYREX® bowl resting in a paper bowl and covered with a ceramic saucer, then heated for 20 seconds at full power in a microwave. The resulting viscous mixture was kept fluid in a warm water bath at 100-110° F., until used for the placement procedure. The wound hydrogels used in the present study were two types: one contains alginate (SAF-Gel® from ConvaTec of E. R. Squibb & Sons, Princeton, N.J.) and the other contains acemannan from Aloe vera L. (Carrasyn®V from Carrington Laboratories, Irving, Tex.). […] Such hydrogels are used in the care of open dermal wounds as well as in first and second degree burns since they provide a closed moist environment for wound healing.\n(§5) The rats were anesthesized with 1.5% to 2% isoflurane for the percutaneous kinesthetic placement of the above “gels” by the specified nerves. Using an angled 23 gauge thin wall 1″ needle, approximately 0.1 cc-0.2 cc of gel was placed percutaneously with kinesthetic technique in the anatomically defined fascial tunnels of the chosen peripheral nerves as described below.\n(§6) The doses were given intraperitoneally (I.P.) and behavioral stimulus testing began 40-80 minutes after the dose. The student's t-test (p<0.05) was performed for determining the significance of changes in behaviors associated with pain after the analgesic was administered."}, "rat pain model variants [2]": {"system": "rat pain model variants", "format": "in vivo, Sprague Dawley rats", "conditions": "for von Frey F 4.93 # ST[…]-ANALGESIC: of 6", "procedure": "Male Sprague Dawley rats initially weighing between 150 and 175 grams were housed singly. […] The pain behaviors studied were static mechanical allodynia (e.g., light touch stimulation with von Frey fibers 4.56, 4.73, 4.93, and/or 5.07), dynamic mechanical allodynia (e.g., stimulation with moving camel hair brush), and/or mechanical hyperalgesia (e.g., pinprick stimulation).\nas §2\nThe stimuli used to elicit pain behavior were the von Frey fibers, camel hair brush and pinprick, with 6 stimulations of each stimulus.\nas §4, §5, §6"}, "rat pain model variants [3]": {"system": "rat pain model variants", "assay": "Dynamic mechanical allodynia (camel hair brush) in rat pain model variants", "format": "in vivo, Sprague Dawley rats", "conditions": "n=12 rats", "procedure": "as §1, §2, §3\nThe tunnels identified by the above studies were then used for the placement of the biocompatible gels by the chosen peripheral nerves. The gelatinous or viscous substances (i.e., the gels) placed by the peripheral nerves or nerve roots contained collagen (e.g., AVITENE® and gelatin) or hydrogels. […]"}, "rat pain model variants [4]": {"system": "rat pain model variants", "assay": "Mechanical hyperalgesia (pinprick) in rat pain model variants", "format": "in vivo, Sprague Dawley rats", "conditions": "for Pinprick # STIMULATIONS POST-ANALGESIC / Pinprick # ST[…]-ANALGESIC: of 6; for Post Avg, Average Positive stimulations out of 6 total, Stim PP Pin Prick: n=12 rats", "procedure": "as §1, §2, §3, §4, §5, §6"}, "[5]": {"system": "Mice with Neural Compression", "assay": "von Frey fiber and camel hair brush testing for mechanical allodynia in mice with collagen placed by the posterior tibial nerve", "format": "in vivo", "conditions": "for Average # Paw Withdrawals: of 10 stimulations, n=10 mice", "procedure": "Biocompatible collagen was prepared for use in the present study. The collagen source was dry gelatin that was prepared using sterile techniques. The dry collagen was measured to 2.5 grams and mixed with 7.5 cc of sterile normal saline. The mixture was heated for 30 seconds in a microwave on 80% power, The mixture was kept soft in warm water (approximately 100 to 110 degrees).\nThe consistency of the resulting warm collagen was such that it was able to pass through a 23 gauge needle. Humidity and other factors such as temperature can affect the consistency of the substance. 1-cc syringes were used for injection of 0.2 to 0.25 cc of collagen. For the injection, 23 gauge 1″ standard luer lock hypodermic needles were used. The needles were very slightly dulled with a metal file at the tip and edges using sterile technique. The needles were angled at the midpoint with a bevel tip up. The angle was between 30 and 45 degrees, but any angle that allows for easy placement of the injected substance could be used. The needles were then attached to the collagen-filled one cc syringes. The syringes were kept in a warm water bath (100 to 110° F.) to maintain proper gel consistency.\nThe mice were lightly anesthetized with 1.5 to 2% isoflurane. The mice were then stabilized and aligned such that the left posterior leg was in view. The external anatomic landmarks of the posterior popliteal area were identified. The internal anatomy of this area including the posterior tibial nerve with its artery was mentally visualized with kinesthetic techniques. Kinesthetic techniques are methods that use the kinesthetic sense or the integration of the senses by which movement, mass, turgor, shape, resistance, elasticity, temperature, spatial relationships and position are commonly perceived. It also refers to the integrated use of multiple senses such as touch, proprioception, vision, and hearing. After location of the site for placement of the gel, the needle and syringe were then removed from the warm water bath. The distal portion of the needle was held loosely parallel to the tibia. The needle was allowed to gently penetrate through the dermis by pulling the skin taut over the popliteal fossa. With careful avoidance of tissue resistance, the needle tip, bevel up, was gently slipped beneath the fascial edge of the soleus muscle by the tibial nerve and artery into the deep posterior fascial compartment of the posterior tibial neurovascular tunnel, which is the neurovascular tunnel for the posterior tibial nerve and its proximal branches. When the tip of the needle was at the mid soleus muscle belly, the collagen mixture was slowly injected into the posterior tibial tunnel. The needle was removed and the animals allowed to recover from the anesthetic. All animals were normally moving freely within 20 minutes of anesthesia withdrawal.\nTwo days after placement of the collagen gel around the nerve, von Frey testing was again performed. Von Frey testing continued for 49 days. […]"}, "[6]": {"system": "open surgical rat model for CRPS I", "conditions": "prior art surgical model, Reyna et al. 1999; cited from earlier work"}, "[7]": {"conditions": "Ethosuximide 100 mg/kg IP, 1 rat tibial n. with Acemann hydrogel, pre 6"}, "[8]": {"conditions": "Ethosuximide 100 mg/kg IP, 1 rat tibial n. with Alginate hydrogel, pre 6"}}, "note": "Where “and” joins values, the source holds several entries; their conditions need not be identical. Equal values may be shown once. Read-outs that look alike come from different tables or passages of the source."}
{"molecule": "CCC1(C)CC(=O)NC1=O", "note": "(centres unmarked) [Ethosuximide, ethosuximide]", "values": [{"measurement": "analgesic effect (significance)", "setting": "rat pain model variants [1]; ethosuximide 200 mg/kg IP, Table 12", "result": "significant analgesic effects"}, {"measurement": "von Frey F 4.93 # ST[…]-ANALGESIC", "setting": "rat pain model variants [2]; Ethosuximide 100 mg/kg IP, 1 rat saphenous n. with Avitene collagen, pre 4", "result": 0}, {"measurement": "von Frey F 4.93 # ST[…]-ANALGESIC", "setting": "rat pain model variants [2]; [7]", "result": 0}, {"measurement": "von Frey F 4.93 # ST[…]-ANALGESIC", "setting": "rat pain model variants [2]; [8]", "result": 0}, {"measurement": "von Frey F 4.93 # ST[…]-ANALGESIC", "setting": "rat pain model variants [2]; Ethosuximide 100 mg/kg IP, single rats sciatic n. with Alginate hydrogel (two rats, pre 3 and 6)", "result": 0}, {"measurement": "von Frey F 4.93 # ST[…]-ANALGESIC, Total", "setting": "rat pain model variants [2]; Ethosuximide 100 mg/kg IP, total of 5 rats, pre total 25, pre vs post p=1.43E-3", "result": 0}, {"measurement": "Post Avg, Average Positive stimulations out of 6 total, Stim A vF 4.56", "setting": "rat pain model variants [2]; Ethosuximide 200 mg/kg (IP), all rats of Tables 8-10, n=12, Pre Avg 1.83, p=2.9E-3", "result": 0.5}, {"measurement": "Post Avg, Average Positive stimulations out of 6 total, Stim B vF 4.93", "setting": "rat pain model variants [2]; Ethosuximide 200 mg/kg (IP), n=12 rats, Pre Avg 2.92, p=8.4E-5", "result": 0.58}, {"measurement": "Post Avg, Average Positive stimulations out of 6 total, Stim C vF 5.07", "setting": "rat pain model variants [2]; Ethosuximide 200 mg/kg (IP), n=12 rats, Pre Avg 3.92, p=1.4E-5", "result": 0.83}, {"measurement": "Post Avg, Average Positive stimulations out of 6 total, Stim S Brush", "setting": "rat pain model variants [3]; Ethosuximide 200 mg/kg (IP), Pre Avg 4.17, p=1.1E-4", "result": 1.17}, {"measurement": "Pinprick # STIMULATIONS POST-ANALGESIC", "setting": "rat pain model variants [4]; Ethosuximide 100 mg/kg IP, 1 rat saphenous n. with Avitene collagen, pre 6", "result": 1}, {"measurement": "Pinprick # STIMULATIONS POST-ANALGESIC", "setting": "rat pain model variants [4]; [7]", "result": 0}, {"measurement": "Pinprick # STIMULATIONS POST-ANALGESIC", "setting": "rat pain model variants [4]; [8]", "result": 2}, {"measurement": "Pinprick # STIMULATIONS POST-ANALGESIC", "setting": "rat pain model variants [4]; Ethosuximide 100 mg/kg IP, single rats sciatic n. with Alginate hydrogel (two rats, pre 6 and 6)", "result": "0 and 1"}, {"measurement": "Pinprick # STIMULATIONS POST-ANALGESIC, Total", "setting": "rat pain model variants [4]; Ethosuximide 100 mg/kg IP, total of 5 rats, pre total 30, pre vs post p=1.6E-4", "result": 4}, {"measurement": "Post Avg, Average Positive stimulations out of 6 total, Stim PP Pin Prick", "setting": "rat pain model variants [4]; Ethosuximide 200 mg/kg (IP), Pre Avg 5.25, p=1.4E-8", "result": 1.75}]}
{"molecule": "CN1CC[C@]23c4c5ccc(O)c4O[C@H]2[C@@H](O)C=C[C@H]3[C@H]1C5.O=S(=O)(O)O", "note": "[morphine, morphine sulfate]", "values": [{"measurement": "Average # Paw Withdrawals", "setting": "[5]; morphine 1 mg/kg IP, post procedure day 49 (8.71 before dose)", "result": 8.71}, {"measurement": "Average # Paw Withdrawals", "setting": "[5]; morphine 5 mg/kg IP, post procedure day 51 (8.88 before dose)", "result": 6.66}, {"measurement": "Analgesic response (mechanical allodynia)", "setting": "[5]; morphine at least 5 mg/kg IP", "result": "Analgesic responses were shown"}, {"measurement": "analgesic effect (significance)", "setting": "rat pain model variants [1]; morphine 5 mg/kg IP, Tables 7 and 12, listed as Morphine, sulfate", "result": "significant analgesic effect"}, {"measurement": "analgesic effect (significance)", "setting": "rat pain model variants [1]; morphine 5 mg/kg IP, Tables 7 and 12, listed as morphine Sulfate, sulfate", "result": "significant analgesic effects"}, {"measurement": "Post Avg, Average Positive stimulations out of 6 total, Stim A vF 4.56", "setting": "rat pain model variants [2]; Morphine Sulfate 5 mg/kg (IP), n=12 rats, Pre Avg 2.83, p=1.6E-4", "result": 0.33}, {"measurement": "Post Avg, Average Positive stimulations out of 6 total, Stim B vF 4.93", "setting": "rat pain model variants [2]; Morphine Sulfate 5 mg/kg (IP), n=12 rats, Pre Avg 3.33, p=1.3E-6", "result": 0.58}, {"measurement": "Post Avg, Average Positive stimulations out of 6 total, Stim C vF 5.07", "setting": "rat pain model variants [2]; Morphine Sulfate 5 mg/kg (IP), n=12 rats, Pre Avg 3.33, p=6.1E-6", "result": 0.83}, {"measurement": "Post Avg, Average Positive stimulations out of 6 total, Stim S Brush", "setting": "rat pain model variants [3]; Morphine Sulfate 5 mg/kg (IP), Pre Avg 4.75, p=1.5E-6", "result": 1.69}, {"measurement": "Pinprick # ST[…]-ANALGESIC", "setting": "rat pain model variants [4]; Morphine 5 mg/kg IP, 1 rat peroneal n. with Avitene collagen, pre 6", "result": 1}, {"measurement": "Pinprick # ST[…]-ANALGESIC", "setting": "rat pain model variants [4]; Morphine 5 mg/kg IP, 1 rat tibial n. with Acemannan hydrogel, pre 6", "result": 2}, {"measurement": "Pinprick # ST[…]-ANALGESIC", "setting": "rat pain model variants [4]; Morphine 5 mg/kg IP, 1 rat tibial n. with Alginate hydrogel, pre 6", "result": 3}, {"measurement": "Pinprick # ST[…]-ANALGESIC", "setting": "rat pain model variants [4]; Morphine 5 mg/kg IP, single rats sciatic n. with Alginate hydrogel (two rats, pre 6 and 6), sulfate", "result": "2 and 4"}, {"measurement": "Pinprick # ST[…]-ANALGESIC, Total", "setting": "rat pain model variants [4]; Morphine 5 mg/kg IP, total of 5 rats, pre total 30, pre vs post p=2.1E-3", "result": 12}, {"measurement": "Post Avg, Average Positive stimulations out of 6 total, Stim PP Pin Prick", "setting": "rat pain model variants [4]; Morphine Sulfate 5 mg/kg (IP), Pre Avg 5.67, p=2.0E-10", "result": 2.17}, {"measurement": "analgesic response", "setting": "[6]", "result": "exhibited an analgesic response"}]}
